Reference: ChEMBL document CHEMBL4334492, “Nectriatide, a Potentiator of Amphotericin B Activity from Nectriaceae sp. BF-0114” (J Nat Prod, 2019)
Non-standard residues stand in square brackets, D forms with d. Residues, ends and D or L forms follow the SMILES beside them. *: point of attachment. NMeY = CN[C@@H](Cc1ccc(O)cc1)C(=O)O; 2Abz = Nc1ccccc1C(=O)O; tBu = CC(C)(C)*

Tests used:
Format in all cases: functional
Candida albicans [1] = experiment: Potentiation of amphotericin-induced antifungal activity against Candida albicans ATCC 90029 assessed as fold reduction in amphotericin MIC at 32 ug/ml after 24 hrs by broth microdilution method relative to amphotericin MIC alone
Candida albicans [2] = experiment: Potentiation of amphotericin-induced antifungal activity against Candida albicans ATCC 90029 assessed as amphotericin MIC at 32 ug/ml after 24 hrs by broth microdilution method (reference value: 0.5 ug/ml); details: ATCC 90029, 24 h
Candida albicans [3] = experiment: Potentiation of amphotericin-induced antifungal activity against Candida albicans ATCC 90029 assessed as fold reduction in amphotericin MIC at 8 ug/ml after 24 hrs by broth microdilution method relative to amphotericin MIC alone
Candida albicans [4] = experiment: Potentiation of amphotericin-induced antifungal activity against Candida albicans ATCC 90029 assessed as fold reduction in amphotericin MIC at 16 ug/ml after 24 hrs by broth microdilution method relative to amphotericin MIC alone
Candida albicans [5] = experiment: Potentiation of amphotericin-induced antifungal activity against Candida albicans ATCC 90029 assessed as amphotericin MIC at 8 ug/ml after 24 hrs by broth microdilution method (reference value: 0.5 ug/ml); details: ATCC 90029, 24 h
Candida albicans [6] = experiment: Potentiation of amphotericin-induced antifungal activity against Candida albicans ATCC 90029 assessed as amphotericin MIC at 16 ug/ml after 24 hrs by broth microdilution method (reference value: 0.5 ug/ml); details: ATCC 90029, 24 h
Candida albicans [7] = experiment: Potentiation of amphotericin-induced antifungal activity against Candida albicans ATCC 90029 assessed as fold reduction in amphotericin MIC at 2 ug/ml after 24 hrs by broth microdilution method relative to amphotericin MIC alone
Candida albicans [8] = experiment: Potentiation of amphotericin-induced antifungal activity against Candida albicans ATCC 90029 assessed as fold reduction in amphotericin MIC at 4 ug/ml after 24 hrs by broth microdilution method relative to amphotericin MIC alone
Candida albicans [9] = experiment: Potentiation of amphotericin-induced antifungal activity against Candida albicans ATCC 90029 assessed as amphotericin MIC at 4 ug/ml after 24 hrs by broth microdilution method (reference value: 0.5 ug/ml); details: ATCC 90029, 24 h
Candida albicans [10] = experiment: Potentiation of amphotericin-induced antifungal activity against Candida albicans ATCC 90029 assessed as amphotericin MIC at 2 ug/ml after 24 hrs by broth microdilution method (reference value: 0.5 ug/ml); details: ATCC 90029, 24 h

| SMILES | MIC (Candida albicans [2]) | MIC (Candida albicans [5]) | MIC (Candida albicans [6]) | MIC (Candida albicans [9]) | MIC (Candida albicans [10]) | Ratio (Candida albicans [1]) | Ratio (Candida albicans [3]) | Ratio (Candida albicans [4]) | Ratio (Candida albicans [7]) | Ratio (Candida albicans [8]) |
| --- | --- | --- | --- | --- | --- | --- | --- | --- | --- | --- |
| C[C@H](NC(=O)c1ccccc1N)C(=O)O | 0.13 µg/mL |  |  |  |  | 4 |  |  |  |  |
| CN[C@@H](Cc1ccc(OC(C)(C)C)cc1)C(=O)Nc1ccccc1C(=O)O | 0.13 µg/mL |  |  |  |  | 4 |  |  |  |  |
| CN[C@@H](Cc1ccc(OC(C)(C)C)cc1)C(=O)Nc1ccccc1C(=O)N[C@@H](C)C(=O)O | 0.25 µg/mL |  |  |  |  | 2 |  |  |  |  |
| Nc1ccccc1C(=O)O [ANTHRANILIC ACID] | 0.5 µg/mL |  |  |  |  | 1 |  |  |  |  |

The next lines start with results.

| MIC (Candida albicans [2]) | MIC (Candida albicans [5]) | MIC (Candida albicans [6]) | MIC (Candida albicans [9]) | MIC (Candida albicans [10]) | SMILES | Ratio (Candida albicans [1]) | Ratio (Candida albicans [3]) | Ratio (Candida albicans [4]) | Ratio (Candida albicans [7]) | Ratio (Candida albicans [8]) |
| --- | --- | --- | --- | --- | --- | --- | --- | --- | --- | --- |
| 0.063 µg/mL | 0.25 µg/mL | 0.13 µg/mL |  |  | CC(C)[C@H](N)C(=O)N(C)[C@@H](Cc1ccc(OC(C)(C)C)cc1)C(=O)Nc1ccccc1C(=O)N[C@@H](C)C(=O)O (H-V[NMeY](tBu)[2Abz]A-OH) | 8 | 2 | 4 |  |  |
| 0.031 µg/mL | 0.031 µg/mL | 0.031 µg/mL | 0.13 µg/mL | 0.25 µg/mL | CC(C)[C@H](NC(=O)[C@H](C)N)C(=O)N(C)[C@@H](Cc1ccc(OC(C)(C)C)cc1)C(=O)Nc1ccccc1C(=O)O (H-AV[NMeY](tBu)[2Abz]-OH) | 16 |  | 16 | 2 | 4 |
